Here are results for 23 molecules from US20050215614A1, “Substituted indoles and their use as hcv inhibitors” (Rigel Pharmaceuticals, Inc., priority 2003, published 2005).

The structures appear in SMILES notation.

This assay relates to HCV replicon. Nature of the assay: HCV Replicon Assay (luciferase, 5-2 Luc replicon cells). Conditions: 5-2 Luc replicon cells (Huh7), 24-48 hours with compound, luciferase counts. Type of assay: cell-based. As to the method:
Actively dividing 5-2 Luc replicon cells were seeded at the density of 5000-7500 cells/well in the volume of 90 μl/well into 96 well plate(s). The cells were then incubated at 37° C. and 5% CO2 for 24 hours. The 5-2 cells are replicon cells licensed from Ralf Bartenschlager (Germany) and have a self-replicating RNA molecule in the Huh7 cell; the RNA contains HCV non-structural proteins that make the self-replication possible.
Various concentrations of compounds (in the volume of 10 μl) were added into each well 24 hours after seeding the cells. The cells were incubated for another 24-48 hours before luciferase assay.
After incubating the 5-2 Luc replicon cells with the compounds for 24-48 hours, media were aspirated from each well and Bright-Glo (Promega) luciferase assay reagents were added to each well according to the manufacturer′s manual. Briefly, the Bright-Glo reagent was diluted with equal volume of PBS and an aliquote (100 μl) was added to each well. After incubating the plate at room temperature for 5 minutes, luciferase counts were taken using a luminometer.
Turning to `CC(C)(C)c1cc2cc(NC(=O)Cc3cccc4ccccc34)ccc2[nH]1` [Compound 5a, 2-t-Butyl-5-(naphth-1-yl-ethanoyl)aminoindole], the “Activity (concentration of inhibitory activity)” value is listed as “b (“b” indicates activity is at a concentration greater than 10 micromolar)”.

Consider `CC(C)(C)c1cc2cc(NC(=O)Cc3cccc([N+](=O)[O-])c3)ccc2[nH]1` [Compound 5b, 2-t-Butyl-5-(3-nitrophenylethanoyl)aminoindole], for which the “Activity (concentration of inhibitory activity)” value is reported as “b (“b” indicates activity is at a concentration greater than 10 micromolar)”.

With `CC(C)(C)c1cc2cc(NC(=O)C3CCCC3)ccc2[nH]1` [Compound 5c, 2-t-Butyl-5-(cyclopentanecarbonyl)aminoindole], the “Activity (concentration of inhibitory activity)” value was “a (“a” indicates inhibitory activity at a concentration of less than 10 micromolar)”.

In the case of `CC(C)(C)c1cc2cc(NC(=O)C3(c4ccc(Cl)cc4)CCCC3)ccc2[nH]1` [Compound 5d, 2-t-Butyl-5-(1-(4chlorophenyl)-1-cyclopentanecarbonyl)aminoindole], the “Activity (concentration of inhibitory activity)” value is “b (“b” indicates activity is at a concentration greater than 10 micromolar)”.

`CC(C)(C)c1cc2cc(NC(=O)c3c(F)cccc3F)ccc2[nH]1` [Compound 5e, 2-t-Butyl-5-(2′,6′-difluorophenylcarbonyl)aminoindole]: the “Activity (concentration of inhibitory activity)” value is given as “a (“a” indicates inhibitory activity at a concentration of less than 10 micromolar)”.

Take `CC(C)(C)c1cc2cc(NC(=O)c3ccc(Cl)cc3Cl)ccc2[nH]1` [Compound 5f, 2-t-Butyl-5-(2′,4′-dichlorophenylcarbonyl)aminoindole]: the “Activity (concentration of inhibitory activity)” value is on record as “a (“a” indicates inhibitory activity at a concentration of less than 10 micromolar)”.

For the molecule `Cc1ccsc1C(=O)Nc1ccc2[nH]c(C(C)(C)C)cc2c1` [Compound 5g, 2-t-Butyl-5-(3-methylthiophene-2-carbonyl)aminoindole], the “Activity (concentration of inhibitory activity)” value is on record as “a (“a” indicates inhibitory activity at a concentration of less than 10 micromolar)”.

Regarding `CC(C)(C)c1cc2cc(NC(=O)C(Cl)Cl)ccc2[nH]1` [Compound 5h, 2-t-Butyl-5-dichloroacetamidoindole], the “Activity (concentration of inhibitory activity)” value was “a (“a” indicates inhibitory activity at a concentration of less than 10 micromolar)”.

With `Cc1cn(C(=O)c2c(Cl)cccc2Cl)c2ccc(NC(=O)C3CCCC3)cc12` [Compound 9a, 5-(Cyclopentanecarbonyl)amino-1-(2′,6′-dichlorobenzoyl)-3-methylindole], the “Activity (concentration of inhibitory activity)” value is reported as “a (“a” indicates inhibitory activity at a concentration of less than 10 micromolar)”.

As for `CCCC(=O)Nc1ccc2c(c1)c(C)cn2C(=O)c1c(Cl)cccc1Cl` [Compound 9b, 1-(2′,6′-Dichlorobenzoyl)-3-methyl-5-(n-propanecarbonyl)aminoindole], the “Activity (concentration of inhibitory activity)” value is reported as “a (“a” indicates inhibitory activity at a concentration of less than 10 micromolar)”.

Regarding `Cc1cn(C(=O)c2c(Cl)cccc2Cl)c2ccc(NC(=O)C3CCC3)cc12` [Compound 9c, 5-(Cyclobutanecarbonyl)amino-1-(2′,6′-dichlorobenzoyl)-3-methylindole], the “Activity (concentration of inhibitory activity)” value is reported as “a (“a” indicates inhibitory activity at a concentration of less than 10 micromolar)”.

As to `Cc1cn(C(=O)c2c(Cl)cccc2Cl)c2ccc(NC(=O)C3CC3)cc12` [Compound 9d, 5-(Cyclopropanecarbonyl)amino-1-(2′,6′-dichlorobenzoyl)-3-methylindole], the “Activity (concentration of inhibitory activity)” value is listed as “a (“a” indicates inhibitory activity at a concentration of less than 10 micromolar)”.

Take `CCCCC(=O)Nc1ccc2c(c1)c(C)cn2C(=O)c1c(Cl)cccc1Cl` [Compound 9e, 5-(n-Butanecarbonyl)amino-1-(2′,6′-dichlorobenzoyl)-3-methylindole]: the “Activity (concentration of inhibitory activity)” value is on record as “a (“a” indicates inhibitory activity at a concentration of less than 10 micromolar)”.

`C/C=C/C(=O)C(=O)Nc1ccc2c(c1)c(C)cn2C(=O)c1c(Cl)cccc1Cl` [Compound 9f, 5-(trans-Crotonylcarbonyl)amino-1-(2′,6′-dichlorobenzoyl)-3-methylindole]: the “Activity (concentration of inhibitory activity)” value is recorded as “a (“a” indicates inhibitory activity at a concentration of less than 10 micromolar)”.

Take `Cc1c(C)n(C(=O)c2c(Cl)cccc2Cl)c2ccc(NC(=O)C3CCCCC3)cc12` [Compound 13a, 5-(Cyclohexanecarbonyl)amino-1-(2′,6′-dichlorobenzoyl)-2,3-dimethylindole]: the “Activity (concentration of inhibitory activity)” value is recorded as “a (“a” indicates inhibitory activity at a concentration of less than 10 micromolar)”.

Take `Cc1c(C)n(C(=O)c2c(Cl)cccc2Cl)c2ccc(NC(=O)C3CCCC3)cc12` [Compound 13b, 5-(Cyclopentanecarbonyl)amino-1-(2′,6′-dichlorobenzoyl)-2,3-dimethylindole]: the “Activity (concentration of inhibitory activity)” value is listed as “a (“a” indicates inhibitory activity at a concentration of less than 10 micromolar)”.

With `Cc1c(C)n(C(=O)c2c(Cl)cccc2Cl)c2ccc(NC(=O)C3CCC3)cc12` [Compound 13c, 5-(Cyclobutanecarbonyl)amino-1-(2′,6′-dichlorobenzoyl)-2,3-dimethylindole], the “Activity (concentration of inhibitory activity)” value is recorded as “a (“a” indicates inhibitory activity at a concentration of less than 10 micromolar)”.

In the case of `Cc1c(C)n(C(=O)c2c(Cl)cccc2Cl)c2ccc(NC(=O)C3CC3)cc12` [Compound 13d, 5-(Cyclopropanecarbonyl)amino-1-(2′,6′-dichlorobenzoyl)-2,3-dimethylindole], the “Activity (concentration of inhibitory activity)” value is “a (“a” indicates inhibitory activity at a concentration of less than 10 micromolar)”.

On to `CCCCC(=O)Nc1ccc2c(c1)c(C)c(C)n2C(=O)c1c(Cl)cccc1Cl` [Compound 13e, 5-(n-Butanecarbonyl)amino-1-(2′,6′-dichlorobenzoyl)-2,3-dimethylindole], for which the “Activity (concentration of inhibitory activity)” value is “a (“a” indicates inhibitory activity at a concentration of less than 10 micromolar)”.

With `Cc1cc2cc(NC(=O)C3CCCCC3)ccc2n1C(=O)c1c(Cl)cccc1Cl` [Compound 16a-2, 5-Cyclohexanecarbonylamino-1-(2′,6′-dichlorobenzoyl)-2-methylindole], the “Activity (concentration of inhibitory activity)” value is reported as “a (“a” indicates inhibitory activity at a concentration of less than 10 micromolar)”.

Turning to `Cc1cc2cc(NC(=O)C3CCC3)ccc2n1C(=O)c1c(Cl)cccc1Cl` [Compound 16a-3, 5-Cyclobutanecarbonylamino-1-(2′,6′-dichlorobenzoyl)-2-methylindole], the “Activity (concentration of inhibitory activity)” value was “a (“a” indicates inhibitory activity at a concentration of less than 10 micromolar)”.

`Cc1cc2cc(NC(=O)C3CC3)ccc2n1C(=O)c1c(Cl)cccc1Cl` [Compound 16a-4, 5-Cyclopropanecarbonylamino-1-(2′,6′-dichlorobenzoyl)-2-methylindole]: the “Activity (concentration of inhibitory activity)” value is “a (“a” indicates inhibitory activity at a concentration of less than 10 micromolar)”.

As for `Cc1cc2cc(NC(=O)C(C)C)ccc2n1C(=O)c1c(Cl)cccc1Cl` [Compound 16a-5, 1-(2′,6′-Dichlorobenzoyl)-5-(2-methylpropanoyl)amino-2-methylindole], the “Activity (concentration of inhibitory activity)” value is recorded as “a (“a” indicates inhibitory activity at a concentration of less than 10 micromolar)”.
